From the kinase profiling compilation of Christmann-Franck et al. (2016)
Values belong to the molecule of their own block, whether it stands above or below them.

How the values were obtained:
Test in all cases: KINOMEscan competition binding
Conditions in all cases: compound 10.0 µM
MAP2K2 (human) = MAP2K2 (human) (UniProt P36507)
EPHA7 (human) = EPHA7 (human) (UniProt Q15375)
MAPK4 (human) = MAPK4 (human) (UniProt P31152)
MAPKAPK2 (human) = MAPKAPK2 (human) (UniProt P49137)
EPHA2 (human) = EPHA2 (human) (UniProt P29317)
PIK3CD (human) = PIK3CD (human) (UniProt O00329)
[1] = test system: RET (human), P07949 [M918T]
SGK110 (human) = SGK110 (human) (UniProt P0C264)
AKT1 (human) = AKT1 (human) (UniProt P31749)
AKT1 (human), sequence (P31749 whole entry, looked up): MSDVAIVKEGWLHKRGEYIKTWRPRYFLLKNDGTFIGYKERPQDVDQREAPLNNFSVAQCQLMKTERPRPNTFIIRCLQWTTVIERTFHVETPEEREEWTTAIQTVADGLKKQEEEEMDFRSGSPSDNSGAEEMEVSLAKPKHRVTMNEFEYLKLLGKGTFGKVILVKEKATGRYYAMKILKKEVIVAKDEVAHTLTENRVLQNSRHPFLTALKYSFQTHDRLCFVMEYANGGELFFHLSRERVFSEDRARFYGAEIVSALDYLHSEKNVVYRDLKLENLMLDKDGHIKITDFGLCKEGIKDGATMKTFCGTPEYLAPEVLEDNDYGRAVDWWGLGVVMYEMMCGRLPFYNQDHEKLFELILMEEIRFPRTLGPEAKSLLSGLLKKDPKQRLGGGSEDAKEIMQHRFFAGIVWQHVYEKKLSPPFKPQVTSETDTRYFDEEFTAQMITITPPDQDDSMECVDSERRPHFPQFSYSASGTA

NTRK1 (human) = NTRK1 (human) (UniProt P04629)
MERTK (human) = MERTK (human) (UniProt Q12866)
ERBB2 (human) = ERBB2 (human) (UniProt P04626)
MAP4K1 (human) = MAP4K1 (human) (UniProt Q92918)
EPHA6 (human) = EPHA6 (human) (UniProt Q9UF33)
EPHA6 (human), sequence (Q9UF33 whole entry, looked up): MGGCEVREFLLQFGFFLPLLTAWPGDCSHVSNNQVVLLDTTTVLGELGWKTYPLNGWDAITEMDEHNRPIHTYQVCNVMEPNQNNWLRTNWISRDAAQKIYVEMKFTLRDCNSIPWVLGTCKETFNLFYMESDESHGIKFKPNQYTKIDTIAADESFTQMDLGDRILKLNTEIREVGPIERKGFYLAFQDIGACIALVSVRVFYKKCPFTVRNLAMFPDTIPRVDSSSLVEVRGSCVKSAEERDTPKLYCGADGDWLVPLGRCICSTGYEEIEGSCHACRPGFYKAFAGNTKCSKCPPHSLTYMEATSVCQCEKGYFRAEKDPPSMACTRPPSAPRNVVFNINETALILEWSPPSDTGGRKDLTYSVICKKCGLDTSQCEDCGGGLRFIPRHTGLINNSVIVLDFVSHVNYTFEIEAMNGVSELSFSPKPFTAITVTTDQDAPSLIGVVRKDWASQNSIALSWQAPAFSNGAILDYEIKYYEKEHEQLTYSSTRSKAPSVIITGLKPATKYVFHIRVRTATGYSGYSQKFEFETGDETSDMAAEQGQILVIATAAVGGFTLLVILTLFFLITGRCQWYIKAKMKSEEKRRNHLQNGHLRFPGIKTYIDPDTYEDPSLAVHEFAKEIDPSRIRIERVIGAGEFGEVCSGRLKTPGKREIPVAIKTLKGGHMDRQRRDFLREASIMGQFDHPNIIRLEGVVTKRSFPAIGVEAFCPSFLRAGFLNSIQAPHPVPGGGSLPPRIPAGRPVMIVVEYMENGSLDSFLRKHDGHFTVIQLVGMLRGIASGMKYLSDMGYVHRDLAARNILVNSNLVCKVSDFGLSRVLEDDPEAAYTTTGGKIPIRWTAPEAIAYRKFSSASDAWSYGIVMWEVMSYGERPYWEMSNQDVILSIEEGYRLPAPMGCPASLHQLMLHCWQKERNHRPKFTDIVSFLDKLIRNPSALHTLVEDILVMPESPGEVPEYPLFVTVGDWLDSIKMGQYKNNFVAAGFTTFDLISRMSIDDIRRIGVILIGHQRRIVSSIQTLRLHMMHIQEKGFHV

PIK3CB (human) = PIK3CB (human) (UniProt P42338)
AKT2 (human) = AKT2 (human) (UniProt P31751)
CHEK1 (human) = CHEK1 (human) (UniProt O14757)
STK38L (human) = STK38L (human) (UniProt Q9Y2H1)
STK38L (human), sequence (Q9Y2H1 whole entry, looked up): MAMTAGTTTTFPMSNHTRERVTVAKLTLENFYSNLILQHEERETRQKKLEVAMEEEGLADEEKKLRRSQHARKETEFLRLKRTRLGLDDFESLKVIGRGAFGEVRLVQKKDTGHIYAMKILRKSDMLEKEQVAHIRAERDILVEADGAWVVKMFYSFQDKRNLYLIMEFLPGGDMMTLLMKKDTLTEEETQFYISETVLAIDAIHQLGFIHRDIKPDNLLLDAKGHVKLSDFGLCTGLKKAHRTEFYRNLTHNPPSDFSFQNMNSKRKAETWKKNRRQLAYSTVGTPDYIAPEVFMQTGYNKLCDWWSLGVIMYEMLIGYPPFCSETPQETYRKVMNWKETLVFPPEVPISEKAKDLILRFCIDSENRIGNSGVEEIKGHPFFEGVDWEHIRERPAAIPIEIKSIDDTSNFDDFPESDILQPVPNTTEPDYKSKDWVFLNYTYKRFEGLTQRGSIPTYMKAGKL

PLK3 (human) = PLK3 (human) (UniProt Q9H4B4)
FGFR4 (human) = FGFR4 (human) (UniProt P22455)
TYRO3 (human) = TYRO3 (human) (UniProt Q06418)
PAK2 (human) = PAK2 (human) (UniProt Q13177)
PIK3C2B (human) = PIK3C2B (human) (UniProt O00750)
RPS6KA5 KD1 (human) = RPS6KA5 KD1 (human) (UniProt O75582)
RPS6KA5 KD1 (human), sequence (O75582 whole entry, looked up): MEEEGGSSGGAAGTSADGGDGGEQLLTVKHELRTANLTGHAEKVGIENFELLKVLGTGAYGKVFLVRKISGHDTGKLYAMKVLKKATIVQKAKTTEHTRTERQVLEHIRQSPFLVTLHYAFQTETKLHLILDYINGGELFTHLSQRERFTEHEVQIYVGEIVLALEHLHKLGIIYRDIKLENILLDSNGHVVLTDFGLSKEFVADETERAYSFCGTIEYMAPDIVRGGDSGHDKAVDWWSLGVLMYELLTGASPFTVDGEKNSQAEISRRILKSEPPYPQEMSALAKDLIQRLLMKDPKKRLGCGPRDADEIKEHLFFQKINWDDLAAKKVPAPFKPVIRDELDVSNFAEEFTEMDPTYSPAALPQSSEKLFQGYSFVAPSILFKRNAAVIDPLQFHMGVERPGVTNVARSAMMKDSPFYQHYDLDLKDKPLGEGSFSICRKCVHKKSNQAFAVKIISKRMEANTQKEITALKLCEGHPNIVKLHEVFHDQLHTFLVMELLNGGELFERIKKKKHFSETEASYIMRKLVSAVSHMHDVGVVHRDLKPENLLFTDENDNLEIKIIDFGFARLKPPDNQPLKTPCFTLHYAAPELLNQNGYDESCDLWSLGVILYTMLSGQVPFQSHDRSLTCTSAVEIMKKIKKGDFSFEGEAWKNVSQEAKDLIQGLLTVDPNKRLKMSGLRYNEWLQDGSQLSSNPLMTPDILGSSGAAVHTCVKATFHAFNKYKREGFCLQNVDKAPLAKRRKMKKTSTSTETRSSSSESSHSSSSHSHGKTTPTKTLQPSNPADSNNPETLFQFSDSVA

INSRR (human) = INSRR (human) (UniProt P14616)
MAPK3 (human) = MAPK3 (human) (UniProt P27361)
RPS6KA2 KD1 (human) = RPS6KA2 KD1 (human) (UniProt Q15349)
TXK (human) = TXK (human) (UniProt P42681)
RPS6KA4 KD1 (human) = RPS6KA4 KD1 (human) (UniProt O75676)
CAMK2G (human) = CAMK2G (human) (UniProt Q13555)
CAMK2G (human), sequence (Q13555 whole entry, looked up): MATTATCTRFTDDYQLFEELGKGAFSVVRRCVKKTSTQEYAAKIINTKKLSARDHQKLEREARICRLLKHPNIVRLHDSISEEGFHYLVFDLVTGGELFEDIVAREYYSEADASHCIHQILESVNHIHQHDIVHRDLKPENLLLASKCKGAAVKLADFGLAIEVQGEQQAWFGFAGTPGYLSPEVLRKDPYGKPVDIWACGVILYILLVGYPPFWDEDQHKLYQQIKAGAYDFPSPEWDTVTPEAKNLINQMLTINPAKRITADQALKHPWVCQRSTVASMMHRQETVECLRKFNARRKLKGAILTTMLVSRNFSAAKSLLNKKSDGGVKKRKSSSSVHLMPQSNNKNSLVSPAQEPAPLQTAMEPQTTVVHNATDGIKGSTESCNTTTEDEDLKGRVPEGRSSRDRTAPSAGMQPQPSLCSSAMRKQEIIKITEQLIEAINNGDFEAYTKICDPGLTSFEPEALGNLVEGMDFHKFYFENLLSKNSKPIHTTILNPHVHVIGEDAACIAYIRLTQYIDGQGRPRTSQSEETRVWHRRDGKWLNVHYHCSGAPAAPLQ

CHEK2 (human) = CHEK2 (human) (UniProt O96017)
ACVR1B (human) = ACVR1B (human) (UniProt P36896)
CDK9 (human) = CDK9 (human) (UniProt P50750)
MAPK11 (human) = MAPK11 (human) (UniProt Q15759)
PRKCE (human) = PRKCE (human) (UniProt Q02156)
PRKCE (human), sequence (Q02156 whole entry, looked up): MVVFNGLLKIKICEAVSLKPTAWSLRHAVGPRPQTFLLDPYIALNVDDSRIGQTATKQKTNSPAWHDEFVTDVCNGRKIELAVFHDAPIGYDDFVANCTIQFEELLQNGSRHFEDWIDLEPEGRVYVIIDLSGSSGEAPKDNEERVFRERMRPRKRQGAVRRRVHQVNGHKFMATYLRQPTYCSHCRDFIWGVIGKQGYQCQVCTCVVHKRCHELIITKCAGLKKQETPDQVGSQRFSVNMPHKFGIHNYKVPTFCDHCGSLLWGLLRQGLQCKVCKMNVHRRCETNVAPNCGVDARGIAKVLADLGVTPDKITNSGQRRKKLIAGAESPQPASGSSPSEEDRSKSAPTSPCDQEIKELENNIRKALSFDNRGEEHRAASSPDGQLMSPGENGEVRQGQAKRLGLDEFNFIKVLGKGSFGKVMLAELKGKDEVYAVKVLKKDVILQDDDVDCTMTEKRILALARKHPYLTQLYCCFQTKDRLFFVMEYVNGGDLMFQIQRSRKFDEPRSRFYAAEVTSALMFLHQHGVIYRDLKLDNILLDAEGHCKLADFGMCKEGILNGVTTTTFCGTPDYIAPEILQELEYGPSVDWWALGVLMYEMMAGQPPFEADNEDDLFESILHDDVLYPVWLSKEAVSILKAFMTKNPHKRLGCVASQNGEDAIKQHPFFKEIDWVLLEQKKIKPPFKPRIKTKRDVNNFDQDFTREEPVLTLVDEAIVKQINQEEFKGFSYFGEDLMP

EPHA1 (human) = EPHA1 (human) (UniProt P21709)
RAF1 (human) = RAF1 (human) (UniProt P04049)
MST1R (human) = MST1R (human) (UniProt Q04912)
PRKD2 (human) = PRKD2 (human) (UniProt Q9BZL6)
FGFR1 (human) = FGFR1 (human) (UniProt P11362)
[2] = test system: RET (human), P07949 [V804L]
LIMK1 (human) = LIMK1 (human) (UniProt P53667)
LIMK1 (human), sequence (P53667 whole entry, looked up): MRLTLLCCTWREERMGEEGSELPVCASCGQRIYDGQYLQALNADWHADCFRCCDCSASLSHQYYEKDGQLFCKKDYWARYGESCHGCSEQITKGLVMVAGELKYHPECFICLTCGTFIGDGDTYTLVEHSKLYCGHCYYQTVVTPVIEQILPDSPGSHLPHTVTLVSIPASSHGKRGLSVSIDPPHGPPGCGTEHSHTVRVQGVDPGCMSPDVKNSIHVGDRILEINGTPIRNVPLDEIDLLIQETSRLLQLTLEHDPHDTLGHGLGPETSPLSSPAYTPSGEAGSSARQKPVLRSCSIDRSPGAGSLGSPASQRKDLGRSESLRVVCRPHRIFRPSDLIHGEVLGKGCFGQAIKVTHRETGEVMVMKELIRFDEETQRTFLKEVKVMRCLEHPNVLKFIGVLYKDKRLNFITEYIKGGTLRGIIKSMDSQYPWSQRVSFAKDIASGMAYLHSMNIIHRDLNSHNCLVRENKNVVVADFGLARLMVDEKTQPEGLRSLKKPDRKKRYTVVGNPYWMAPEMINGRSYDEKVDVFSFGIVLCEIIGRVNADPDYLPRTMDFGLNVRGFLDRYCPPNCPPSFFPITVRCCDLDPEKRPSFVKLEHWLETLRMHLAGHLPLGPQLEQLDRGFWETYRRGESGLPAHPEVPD

kinase still bound, per cent of control (MAP2K2 (human)): 90%
kinase still bound, per cent of control (EPHA7 (human)): 100%
kinase still bound, per cent of control (MAPK4 (human)): 100%
kinase still bound, per cent of control (MAPKAPK2 (human)): 100%
kinase still bound, per cent of control (EPHA2 (human)): 100%
kinase still bound, per cent of control (PIK3CD (human)): 100%
kinase still bound, per cent of control [1]: 98%
kinase still bound, per cent of control (SGK110 (human)): 100%
kinase still bound, per cent of control (AKT1 (human)): 100%
kinase still bound, per cent of control (NTRK1 (human)): 82%
kinase still bound, per cent of control (MERTK (human)): 100%
kinase still bound, per cent of control (ERBB2 (human)): 88%
kinase still bound, per cent of control (MAP4K1 (human)): 98%
kinase still bound, per cent of control (EPHA6 (human)): 100%
kinase still bound, per cent of control (PIK3CB (human)): 100%
kinase still bound, per cent of control (AKT2 (human)): 100%
kinase still bound, per cent of control (CHEK1 (human)): 100%
kinase still bound, per cent of control (STK38L (human)): 100%
kinase still bound, per cent of control (PLK3 (human)): 100%
kinase still bound, per cent of control (FGFR4 (human)): 100%
kinase still bound, per cent of control (TYRO3 (human)): 100%
kinase still bound, per cent of control (PAK2 (human)): 100%
kinase still bound, per cent of control (PIK3C2B (human)): 99%
kinase still bound, per cent of control (RPS6KA5 KD1 (human)): 87%
kinase still bound, per cent of control (INSRR (human)): 100%
kinase still bound, per cent of control (MAPK3 (human)): 100%
kinase still bound, per cent of control (RPS6KA2 KD1 (human)): 100%
kinase still bound, per cent of control (TXK (human)): 100%
kinase still bound, per cent of control (RPS6KA4 KD1 (human)): 100%
kinase still bound, per cent of control (CAMK2G (human)): 100%
kinase still bound, per cent of control (CHEK2 (human)): 100%
kinase still bound, per cent of control (ACVR1B (human)): 100%
kinase still bound, per cent of control (CDK9 (human)): 100%
kinase still bound, per cent of control (MAPK11 (human)): 100%
kinase still bound, per cent of control (PRKCE (human)): 100%
kinase still bound, per cent of control (EPHA1 (human)): 100%
kinase still bound, per cent of control (RAF1 (human)): 100%
kinase still bound, per cent of control (MST1R (human)): 93%
kinase still bound, per cent of control (PRKD2 (human)): 100%
kinase still bound, per cent of control (FGFR1 (human)): 100%
kinase still bound, per cent of control [2]: 100%
kinase still bound, per cent of control (LIMK1 (human)): 100%
Compound: CN1CCN(c2ccc(C(=O)Nc3ncc4c(n3)N(C)c3ccccc3C(=O)N4C)cc2)CC1

kinase still bound, per cent of control (MAP2K2 (human)): 77%
kinase still bound, per cent of control (EPHA7 (human)): 92%
kinase still bound, per cent of control (MAPK4 (human)): 66%
kinase still bound, per cent of control (MAPKAPK2 (human)): 89%
kinase still bound, per cent of control (EPHA2 (human)): 100%
kinase still bound, per cent of control (PIK3CD (human)): 48%
kinase still bound, per cent of control [1]: 96%
kinase still bound, per cent of control (SGK110 (human)): 55%
kinase still bound, per cent of control (AKT1 (human)): 100%
kinase still bound, per cent of control (NTRK1 (human)): 60%
kinase still bound, per cent of control (MERTK (human)): 100%
kinase still bound, per cent of control (ERBB2 (human)): 89%
kinase still bound, per cent of control (MAP4K1 (human)): 82%
kinase still bound, per cent of control (EPHA6 (human)): 97%
kinase still bound, per cent of control (PIK3CB (human)): 90%
kinase still bound, per cent of control (AKT2 (human)): 96%
kinase still bound, per cent of control (CHEK1 (human)): 60%
kinase still bound, per cent of control (STK38L (human)): 88%
kinase still bound, per cent of control (PLK3 (human)): 22%
kinase still bound, per cent of control (FGFR4 (human)): 40%
kinase still bound, per cent of control (TYRO3 (human)): 76%
kinase still bound, per cent of control (PAK2 (human)): 71%
kinase still bound, per cent of control (PIK3C2B (human)): 85%
kinase still bound, per cent of control (RPS6KA5 KD1 (human)): 86%
kinase still bound, per cent of control (INSRR (human)): 96%
kinase still bound, per cent of control (MAPK3 (human)): 95%
kinase still bound, per cent of control (RPS6KA2 KD1 (human)): 82%
kinase still bound, per cent of control (TXK (human)): 72%
kinase still bound, per cent of control (RPS6KA4 KD1 (human)): 100%
kinase still bound, per cent of control (CAMK2G (human)): 57%
kinase still bound, per cent of control (CHEK2 (human)): 77%
kinase still bound, per cent of control (ACVR1B (human)): 86%
kinase still bound, per cent of control (CDK9 (human)): 76%
kinase still bound, per cent of control (MAPK11 (human)): 85%
kinase still bound, per cent of control (PRKCE (human)): 97%
kinase still bound, per cent of control (EPHA1 (human)): 87%
kinase still bound, per cent of control (RAF1 (human)): 94%
kinase still bound, per cent of control (MST1R (human)): 76%
kinase still bound, per cent of control (PRKD2 (human)): 9.2%
kinase still bound, per cent of control (FGFR1 (human)): 100%
kinase still bound, per cent of control [2]: 89%
kinase still bound, per cent of control (LIMK1 (human)): 100%
Compound: COc1cc(N2CCN(C)CC2)ccc1Nc1ncc2c(n1)N(C)c1sccc1C(=O)N2C

kinase still bound, per cent of control (MAP2K2 (human)): 95%
kinase still bound, per cent of control (EPHA7 (human)): 100%
kinase still bound, per cent of control (MAPK4 (human)): 99%
kinase still bound, per cent of control (MAPKAPK2 (human)): 96%
kinase still bound, per cent of control (EPHA2 (human)): 100%
kinase still bound, per cent of control (PIK3CD (human)): 100%
kinase still bound, per cent of control [1]: 72%
kinase still bound, per cent of control (SGK110 (human)): 97%
kinase still bound, per cent of control (AKT1 (human)): 100%
kinase still bound, per cent of control (NTRK1 (human)): 1.6%
kinase still bound, per cent of control (MERTK (human)): 80%
kinase still bound, per cent of control (ERBB2 (human)): 5%
kinase still bound, per cent of control (MAP4K1 (human)): 100%
kinase still bound, per cent of control (EPHA6 (human)): 100%
kinase still bound, per cent of control (PIK3CB (human)): 88%
kinase still bound, per cent of control (AKT2 (human)): 100%
kinase still bound, per cent of control (CHEK1 (human)): 75%
kinase still bound, per cent of control (STK38L (human)): 100%
kinase still bound, per cent of control (PLK3 (human)): 83%
kinase still bound, per cent of control (FGFR4 (human)): 100%
kinase still bound, per cent of control (TYRO3 (human)): 100%
kinase still bound, per cent of control (PAK2 (human)): 80%
kinase still bound, per cent of control (PIK3C2B (human)): 100%
kinase still bound, per cent of control (RPS6KA5 KD1 (human)): 90%
kinase still bound, per cent of control (INSRR (human)): 41%
kinase still bound, per cent of control (MAPK3 (human)): 93%
kinase still bound, per cent of control (RPS6KA2 KD1 (human)): 61%
kinase still bound, per cent of control (TXK (human)): 80%
kinase still bound, per cent of control (RPS6KA4 KD1 (human)): 100%
kinase still bound, per cent of control (CAMK2G (human)): 100%
kinase still bound, per cent of control (CHEK2 (human)): 84%
kinase still bound, per cent of control (ACVR1B (human)): 100%
kinase still bound, per cent of control (CDK9 (human)): 100%
kinase still bound, per cent of control (MAPK11 (human)): 100%
kinase still bound, per cent of control (PRKCE (human)): 93%
kinase still bound, per cent of control (EPHA1 (human)): 74%
kinase still bound, per cent of control (RAF1 (human)): 89%
kinase still bound, per cent of control (MST1R (human)): 100%
kinase still bound, per cent of control (PRKD2 (human)): 100%
kinase still bound, per cent of control (FGFR1 (human)): 80%
kinase still bound, per cent of control [2]: 80%
kinase still bound, per cent of control (LIMK1 (human)): 100%
Compound: COc1cc(N2CCN(C)CC2)ccc1Nc1ncc2c(n1)Nc1ccccc1NC2=O
